The numbers were not newly measured in US20220289705A1, “PROCESS FOR THE PREPARATION OF RIDINILAZOLE AND CRYSTALLINE FORMS THEREOF” (Summit (Oxford) Limited, priority 2019, published 2022), which cites them from elsewhere.

For this series, the system named is Clostridioides difficile. To be noted: Phase 2 clinical trial; CDI recurrence.

As to `c1cc(-c2nc3cc(-c4ccc5[nH]c(-c6ccncc6)nc5c4)ccc3[nH]2)ccn1` [ridinilazole, 2,2′-di(pyridin-4-yl)-1H,1′H-5,5′-bibenzo[d]imidazole], the “rates of recurrent disease” value is given as 14.3%.
With `CN[C@H](CC(C)C)C(=O)N[C@H]1C(=O)N[C@@H](CC(N)=O)C(=O)N[C@H]2C(=O)N[C@H]3C(=O)N[C@H](C(=O)N[C@H](C(=O)O)c4cc(O)cc(O)c4-c4cc3ccc4O)[C@H](O)c3ccc(c(Cl)c3)Oc3cc2cc(c3O[C@@H]2O[C@H](CO)[C@@H](O)[C@H](O)[C@H]2O[C@H]2C[C@](C)(N)[C@H](O)[C@H](C)O2)Oc2ccc(cc2Cl)[C@H]1O` [vancomycin], the “rates of recurrent disease” value is reported as 34.8%.
